In patent US20260207605A1, “KRAS G12D INHIBITORS AND USES THEREOF” (Abbisko Therapeutics Co., Ltd., priority 2022, published 2026):
Where two headings read alike, the source gives them in different places.

Legend:
[1] = Pharmacokinetic experiment in mice (single PO or IV administration); conditions: male, ICR, mouse, plasma
HPAC = assay: Anti-proliferative 2D CTG assay, HPAC; type: cell-based; conditions: Homo sapiens, 96 h, HPAC cells, 4 days incubation, read-out: HPAC cell IC50
Experimental: (§1) 1.1 Day 0 Cell Culture and Plating
(§2) Cells in a logarithmic growth phase were harvested and the cells were counted by using a […]. Cell viability was tested by using a trypan blue exclusion method to ensure that cell viability was above 90%. The cell concentration was adjusted to the desired final density, and 90 μL of cell suspension was added to a 96-well plate, then the cells were incubated overnight at 37° C., 5% CO2 and 95% humidity.
(§3) 10 μL PBS was added to each well of the TO plate containing cells. The CTG reagent was thawed and the plate was equilibrated to room temperature for 30 minutes. The CTG solution of 50 µL/well was added to each well. The cells were lysed by shaking on an orbital shaker for 5 minutes. The plate was left at room temperature for 20 minutes to stabilize the luminescence signal. The TO fluorescence signal value was read.
(§4) From the 10 mM stock solution, with a ratio of 1:5, 9-point serial dilutions were performed. The 10× medium containing the compound was transferred into corresponding wells of the 96 wells. The final maximum compound concentration was […] and the final DMSO concentration was 0.1%. The 96-well plate was placed in a 37° C. incubator and incubated for 4 days.
(§5) 50 μL/well of detection reagent (CTG) was added to the cells, and the signal was read in an Envision machine.
(§6) The percent inhibition (%) at each compound concentration was calculated from the signal in the HPE and ZPE control wells and the fluorescence signal in the individual compound wells included in each assay plate. […] The compound concentration required for inhibitory concentration at 50% (IC50) was determined using a four-parameter logarithmic dose-response equation by testing the concentration of the compound and the inhibition percentage value. The endpoint value (IC50) of the reference compound was assessed in each experiment as a quality control measure. If the endpoint value is within three times the expected value, the experiment may be considered acceptable.

LS513 = assay: Anti-proliferative 2D CTG assay, LS513; type: cell-based; conditions: Homo sapiens, LS-513, 96 h, LS513 cells, 4 days incubation, read-out: LS513 cell IC50
Experimental: as §1, §2, §3, §4, §5, §6

KRAS^G12D/cRAF = KRAS^G12D/cRAF (Homo sapiens, UniProt P01116, G12D); assay: KRAS G12D/cRAF binding test (Alphalisa); conditions: His-tagged KRAS G12D with GMPPNP, GST-tagged cRAF
Experimental: The compound was dissolved in 100% DMSO at a starting concentration of 5 mM and diluted in DMSO with a 3-fold serial dilution method for a total of 8 concentration points. 1 μL of the compound or DMSO at each concentration point was added into 99 μL of the experimental buffer to obtain 10× stock solution.
The ratio for each compound concentration was calculated from the signal of the DMSO control group contained in each assay plate and the Alphalisa signal in each compound well. The compound concentration required for inhibitory concentration at 50% (IC50) was determined using a four-parameter logarithmic dose-response equation by testing the concentration of the compound and the value of the ratio. The endpoint value (IC50) of the reference compound was assessed in each experiment as a quality control measure. If the endpoint value is within three times the expected value, the experiment may be considered acceptable.

AsPC-1 = assay: Anti-proliferative 2D CTG assay, AsPC-1; type: cell-based; conditions: AsPC-1 cells, 4 days incubation, read-out: AsPC-1 cell IC50
Experimental: as §1, §2, §3, §4, §5, §6

AGS = assay: Anti-proliferative 2D CTG assay, AGS; type: cell-based; conditions: AGS cells, 4 days incubation, read-out: AGS cell IC50
Experimental: as §1, §2, §3, §4, §5, §6

KRAS^G12D/cRAF, sequence (P01116 1-188 isoform P01116-2 G12D): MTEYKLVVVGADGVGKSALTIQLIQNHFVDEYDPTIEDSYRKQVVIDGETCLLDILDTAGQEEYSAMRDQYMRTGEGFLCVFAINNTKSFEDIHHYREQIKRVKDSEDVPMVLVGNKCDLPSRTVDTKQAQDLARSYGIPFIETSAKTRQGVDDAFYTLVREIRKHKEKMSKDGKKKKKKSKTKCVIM

| SMILES | AUC ([1]; iv, 2 mg/kg) | Cmax ([1]; iv, 2 mg/kg) | half-life ([1]; iv, 2 mg/kg) | AUC ([1]; po, 10 mg/kg) | Cmax ([1]; po, 10 mg/kg) | bioavailability ([1]; po, 10 mg/kg) | half-life ([1]; po, 10 mg/kg) | IC50 (HPAC) | IC50 (LS513) | IC50 (KRAS^G12D/cRAF) | IC50 (AsPC-1; Homo sapiens, ASPC1, 96 h) | IC50 (AGS; Homo sapiens, AGS, 96 h) | IC50 (AsPC-1) | IC50 (AGS) |
| --- | --- | --- | --- | --- | --- | --- | --- | --- | --- | --- | --- | --- | --- | --- |
| [2H]C([2H])([2H])C([2H])([2H])[C@@]12CC[C@@H](CN(c3nc(OC[C@@]45CCCN4C/C(=C\F)C5)nc4c(F)c(-c5ccc(F)c6sc(N)c(C#N)c56)c(Cl)cc34)C1)N2 (single isomer, unassigned) [Example 361] | 221 ng·h/mL | 179 ng/mL | 13.7 h | 370 ng·h/mL | 164 ng/mL | 33.5% | 9.6 h | 38 nM | 40 nM | 7.1 nM |  |  |  |  |
| [2H]C([2H])([2H])C([2H])([2H])[C@@]12CC[C@@H](CN(c3nc(OC[C@@]45CCCN4CC(=C(F)F)C5)nc4c(F)c(-c5cc(O)cc6ccc(F)c(C#C)c56)ncc34)C1)N2 [Example 47, 4-(2-(((S)-2-(difluoromethylene)tetrahydro-1H-pyrrolizin-7a (5H)-yl)methoxy)-4-((1R,5S)-1-(ethyl-d5)-3,8-diazabicyclo [3.2.1]octan-3-yl)-8-fluoropyrido [4,3-d]pyrimidin-7-yl)-5-ethynyl-6-fluoronaphthalen-2-ol] |  |  |  |  |  |  |  | 23.1 nM | 23.9 nM | 14.6 nM | 46.3 nM | 4.8 nM |  |  |
| C#Cc1c(F)ccc2cc(O)cc(-c3ncc4c(N5C[C@@H]6CC[C@](CC)(C5)N6)nc(OC[C@@]56CCCN5C/C(=C\F)C6)nc4c3F)c12 [Example 56, 4-(4-((1R,5S)-1-ethyl-3,8-diazabicyclo[3.2.1]octan-3-yl)-8-fluoro-2-(((S,Z)-2-(fluoromethylene)tetrahydro-1H-pyrrolizin-7a (5H)-yl)methoxy)pyrido[4,3-d]pyrimidin-7-yl)-5-ethynyl-6-fluoronaphthalen-2-ol] |  |  |  |  |  |  |  | 2.5 nM | 2.6 nM |  |  |  | 9.1 nM | 0.6 nM |
| [2H]C([2H])([2H])OC[C@@]12CC[C@@H](CN(c3nc(OC[C@@]45CCCN4C/C(=C\F)C5)nc4c(F)c(-c5cc(O)cc6ccc(F)c(C#C)c56)ncc34)C1)N2 [Example 62, 5-ethynyl-6-fluoro-4-(8-fluoro-2-(((S,Z)-2-(fluoromethylene)tetrahydro-1H-pyrrolizin-7a(5H)-yl)methoxy)-4-((1R,5S)-1-((methoxy-d3)methyl)-3,8-diazabicyclo[3.2.1]octan-3-yl)pyrido[4,3-d]pyrimidin-7-yl) naphthalen-2-ol] | 849 ng·h/mL | 764 ng/mL | 4.9 h | 619 ng·h/mL | 224 ng/mL | 14.6% | 5.7 h | 9.7 nM | 4.9 nM | 5.1 nM |  |  | 19.8 nM | 1.5 nM |
| C#Cc1c(F)ccc2cc(O)cc(-c3ncc4c(N5C[C@@H]6CC[C@](C7CC7)(C5)N6)nc(OC[C@@]56CCCN5C/C(=C\F)C6)nc4c3F)c12 [Example 68, 4-(4-(1-cyclopropyl-3,8-diazabicyclo[3.2.1]octan-3-yl)-8-fluoro-2-(((S,Z)-2-(fluoromethylene)tetrahydro-1H-pyrrolizin-7a (5H)-yl)methoxy)pyrido[4,3-d]pyrimidin-7-yl)-5-ethynyl-6-fluoronaphthalen-2-ol] | 813 ng·h/mL | 887 ng/mL | 6.3 h | 1070 ng·h/mL | 300 ng/mL | 26.4% | 5.6 h | 83.2 nM | 59.8 nM | 40.1 nM | 190 nM | 33.4 nM |  |  |
| [2H]C([2H])([2H])C([2H])([2H])[C@@]12CC[C@@H](CN(c3nc(OC[C@@]45CCCN4C/C(=C\F)C5)nc4c(F)c(-c5cc(O)cc6ccc(F)c(C#C)c56)ncc34)C1)N2 [Example 71, 4-(4-((1R,5S)-1-(ethyl-d5)-3,8-diazabicyclo[3.2.1]octan-3-yl)-8-fluoro-2-(((S,Z)-2-(fluoromethylene)tetrahydro-1H-pyrrolizin-7a(5H)-yl)methoxy)pyrido[4,3-d]pyrimidin-7-yl)-5-ethynyl-6-fluoronaphthalen-2-ol] | 497 ng·h/mL | 638 ng/mL | 6.6 h | 1020 ng·h/mL | 461 ng/mL | 41.1% | 4.9 h | 2.3 nM | 4.1 nM | 5.6 nM | 16.7 nM | 1.4 nM |  |  |
| C#Cc1c(F)ccc2cc(O)cc(-c3ncc4c(N5C[C@@H]6CC[C@](C7CCCC7)(C5)N6)nc(OC[C@@]56CCCN5C/C(=C\F)C6)nc4c3F)c12 [Example 75, 4-(4-((1S,5S)-1-cyclopentyl-3,8-diazabicyclo[3.2.1]octan-3-yl)-8-fluoro-2-(((S,Z)-2-(fluoromethylene)tetrahydro-1H-pyrrolizin-7a (5H)-yl)methoxy)pyrido[4,3-d]pyrimidin-7-yl)-5-ethynyl-6-fluoronaphthalen-2-ol] |  |  |  |  |  |  |  | 93.6 nM | 56.1 nM | 34.5 nM |  | 14.2 nM |  |  |
| [2H]C([2H])([2H])C([2H])([2H])[C@@]12CC[C@@H](CN(c3nc(OC[C@@]45CCCN4C/C(=C\F)C5)nc4c(F)c(-c5cc(N)cc6ccc(F)c(C#C)c56)ncc34)C1)N2 [Example 137, 4-(4-((1R,5S)-1-(ethyl-d5)-3,8-diazabicyclo[3.2.1]octan-3-yl)-8-fluoro-2-(((S,Z)-2-(fluoromethylene)tetrahydro-1H-pyrrolizin-7a(5H)-yl)methoxy)pyrido [4,3-d]pyrimidin-7-yl)-5-ethynyl-6-fluoronaphthalen-2-amine] | 775 ng·h/mL | 467 ng/mL | 5.9 h | 1880 ng·h/mL | 298 ng/mL | 48.6% | 2.9 h | 11.7 nM | 14.4 nM | 9.5 nM | 37.6 nM | 9.4 nM |  |  |
| [2H]C([2H])([2H])C([2H])([2H])[C@@]12CC[C@@H](CN(c3nc(OC[C@@]45CCCN4CC(=C)C5)nc4c(F)c(-c5cc(N)cc6ccc(F)c(C#C)c56)ncc34)C1)N2 [Example 357, 4-(4-((1R,5S)-1-(ethyl-d5)-3,8-diazabicyclo[3.2.1]octan-3-yl)-8-fluoro-2-(((S)-2-methylenetetrahydro-1H-pyrrolizin-7a(5H)-yl)methoxy)pyrido[4,3-d]pyrimidin-7-yl)-5-ethynyl-6-fluoronaphthalen-2-amine] |  |  |  |  |  |  |  | 46.9 nM | 57.4 nM |  |  | 23 nM |  |  |
| [2H]C([2H])([2H])OC[C@@]12CC[C@@H](CN(c3nc(OC[C@@]45CCCN4C/C(=C\F)C5)nc4c(F)c(-c5cccc6sc(N)c(C#N)c56)c(Cl)cc34)C1)N2 [Example 363, 2-amino-4-(6-chloro-8-fluoro-2-(((S,Z)-2-(fluoromethylene)tetra-hydro-1H-pyrrolizin-7a(5H)-yl)methoxy)-4-((1R,5S)-1-((methoxy-d3)methyl)-3,8-diaza-bicyclo[3.2.1]octan-3-yl)quina-zolin-7-yl)benzo[b]thiophene-3-carbonitrile] |  |  |  |  |  |  |  | 66.3 nM | 82.3 nM | 18.6 nM |  |  |  |  |
| C#Cc1c(F)ccc2cc(O)cc(-c3ncc4c(N5CC6CCC(C5)N6)nc(OC[C@@]56CCCN5C[C@H](F)C6)nc4c3F)c12 [Positive Compound 1, reference compound] | 367 ng·h/mL | 1130 ng/mL |  | 40.2 ng·h/mL | 20.6 ng/mL | 2.2% |  | 10.3 nM | 18.1 nM |  | 34.9 nM | 4.2 nM |  |  |
| C#Cc1c(F)ccc2cc(O)cc(-c3ncc4c(N5C[C@@H]6CC[C@](CC)(C5)N6)nc(OC[C@@]56CCCN5C[C@H](F)C6)nc4c3F)c12 [Positive Compound 2, reference compound] |  |  |  |  |  |  |  | 33 nM | 59.4 nM |  | 83.3 nM | 9.2 nM |  |  |
